Results: patent US9056832B2, “Pyridine compounds and the users thereof” (Purdue Pharma L.P., priority 2010, dated 2015)

The molecules below were run against human Nav1.7 (Homo sapiens (Human), UniProt Q15858) (assay: FLIPR or FLIPR TETRA sodium dye assay with KCl and test article pre-incubation). Conditions: read-out: Nav1.7 IC50 (μM) ± SEM.
Format: cell-based

Sequence of human Nav1.7 (Q15858 other isoform, or with tags, fused parts or gaps): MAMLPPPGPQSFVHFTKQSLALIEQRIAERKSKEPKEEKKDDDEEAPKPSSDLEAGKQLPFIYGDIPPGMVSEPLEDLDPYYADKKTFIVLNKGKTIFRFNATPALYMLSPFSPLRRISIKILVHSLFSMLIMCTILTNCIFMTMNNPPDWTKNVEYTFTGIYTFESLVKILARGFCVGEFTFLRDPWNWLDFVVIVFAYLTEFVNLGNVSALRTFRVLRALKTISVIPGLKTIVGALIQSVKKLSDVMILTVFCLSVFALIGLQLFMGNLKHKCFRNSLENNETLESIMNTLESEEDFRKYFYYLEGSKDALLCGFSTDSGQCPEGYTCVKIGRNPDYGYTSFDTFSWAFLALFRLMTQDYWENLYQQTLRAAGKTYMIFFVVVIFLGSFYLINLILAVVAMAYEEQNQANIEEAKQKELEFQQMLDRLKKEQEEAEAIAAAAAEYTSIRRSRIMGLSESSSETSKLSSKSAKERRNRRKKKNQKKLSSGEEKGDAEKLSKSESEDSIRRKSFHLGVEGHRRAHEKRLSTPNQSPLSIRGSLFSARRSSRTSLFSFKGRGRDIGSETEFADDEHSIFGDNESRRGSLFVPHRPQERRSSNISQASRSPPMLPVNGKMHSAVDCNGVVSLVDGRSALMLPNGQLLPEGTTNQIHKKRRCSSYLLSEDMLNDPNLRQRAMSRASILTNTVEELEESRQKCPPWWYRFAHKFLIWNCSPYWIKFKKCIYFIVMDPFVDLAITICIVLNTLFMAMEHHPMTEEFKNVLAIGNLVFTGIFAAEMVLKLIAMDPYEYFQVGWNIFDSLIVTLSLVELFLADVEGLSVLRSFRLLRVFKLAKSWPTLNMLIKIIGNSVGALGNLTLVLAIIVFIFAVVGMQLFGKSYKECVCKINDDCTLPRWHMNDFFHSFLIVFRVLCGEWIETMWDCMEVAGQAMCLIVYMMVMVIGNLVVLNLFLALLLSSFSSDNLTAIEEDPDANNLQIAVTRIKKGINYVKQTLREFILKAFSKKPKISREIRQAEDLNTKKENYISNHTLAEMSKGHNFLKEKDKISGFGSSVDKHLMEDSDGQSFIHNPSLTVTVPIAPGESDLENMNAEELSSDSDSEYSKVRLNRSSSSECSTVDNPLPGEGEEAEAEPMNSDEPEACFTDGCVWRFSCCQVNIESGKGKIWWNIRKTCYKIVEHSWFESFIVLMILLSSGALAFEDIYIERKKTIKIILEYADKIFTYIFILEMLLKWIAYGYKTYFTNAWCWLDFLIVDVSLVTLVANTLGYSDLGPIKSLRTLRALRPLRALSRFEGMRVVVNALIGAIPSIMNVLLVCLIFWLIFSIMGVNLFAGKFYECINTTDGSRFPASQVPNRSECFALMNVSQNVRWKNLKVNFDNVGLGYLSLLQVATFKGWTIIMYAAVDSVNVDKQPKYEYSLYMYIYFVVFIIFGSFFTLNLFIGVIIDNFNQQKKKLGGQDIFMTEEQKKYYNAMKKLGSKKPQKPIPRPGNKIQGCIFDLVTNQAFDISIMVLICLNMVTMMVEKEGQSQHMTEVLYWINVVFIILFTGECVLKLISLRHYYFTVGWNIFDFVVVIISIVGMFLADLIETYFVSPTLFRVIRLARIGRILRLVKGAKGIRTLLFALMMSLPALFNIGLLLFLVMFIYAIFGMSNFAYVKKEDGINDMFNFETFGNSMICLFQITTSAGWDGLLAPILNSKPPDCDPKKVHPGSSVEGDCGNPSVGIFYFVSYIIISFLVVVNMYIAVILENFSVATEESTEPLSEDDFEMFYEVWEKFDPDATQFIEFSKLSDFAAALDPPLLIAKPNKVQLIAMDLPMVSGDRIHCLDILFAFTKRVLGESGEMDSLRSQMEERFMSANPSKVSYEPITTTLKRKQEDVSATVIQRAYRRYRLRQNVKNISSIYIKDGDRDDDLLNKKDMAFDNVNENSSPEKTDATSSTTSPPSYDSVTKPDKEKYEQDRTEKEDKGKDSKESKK

Structure (SMILES)	IC50
OCC(O)c1cccc(-c2ccc(Oc3ccc(C(F)(F)F)cc3)cc2)n1 (centres unmarked) [compound 3, 1-(6-(4-(4-(trifluoromethyl)phenoxy)phenyl)pyridin-2-yl)ethane-1,2-diol]	0.07 ± 0.01 µM
OC[C@@H](O)c1cccc(-c2ccc(Oc3ccc(C(F)(F)F)cc3)cc2)n1 [compound 4, (S)-1-(6-(4-(4-(trifluoromethyl)phenoxy)phenyl)pyridin-2-yl)ethane-1,2-diol]	0.12 ± 0.02 µM
N#Cc1ccc(Oc2ccc(-c3cccc([C@H](O)CO)n3)cc2)cc1 [compound 6, (S)-4-(4-(6-(1,2-dihydroxyethyl)pyridin-2-yl)phenoxy)benzonitrile]	0.27 ± 0.05 µM
N#Cc1ccc(Oc2ccc(-c3cccc(C(O)CO)n3)cc2)cc1 (centres unmarked) [compound 8, 4-(4-(6-(1,2-dihydroxyethyl)pyridin-2-yl)phenoxy) benzonitrile]	0.47 ± 0.09 µM
N#Cc1ccc(Oc2ccc(-c3cccc(C(O)CO)n3)cc2)c(C(F)(F)F)c1 (centres unmarked) [compound 9, 4-(4-(6-(1,2-dihydroxyethyl)pyridin-2-yl)phenoxy)-3-(trifluoromethyl) benzonitrile]	0.5 ± 0.18 µM
N#Cc1ccc(Oc2ccc(-c3cccc([C@@H](O)CO)n3)cc2)c(C(F)(F)F)c1 [compound 11, (R)-4-(4-(6-(1,2-dihydroxyethyl)pyridin-2-yl)phenoxy)-3-(trifluoromethyl) benzonitrile]	0.82 ± 0.09 µM
N#Cc1cc(Oc2ccc(-c3cccc(C(O)CO)n3)cc2)ccc1C(F)(F)F (centres unmarked) [compound 12, 5-(4-(6-(1,2-dihydroxyethyl)pyridin-2-yl)phenoxy)-2-(trifluoromethyl) benzonitrile]	0.89 ± 0.02 µM
N#Cc1ccc(Oc2ccc(-c3cccc([C@@H](O)CO)n3)cc2)cc1 [compound 13, (R)-4-(4-(6-(1,2-dihydroxyethyl)pyridin-2-yl)phenoxy) benzonitrile]	0.89 ± 0.08 µM
N#Cc1cc(Oc2ccc(-c3cccc([C@@H](O)CO)n3)cc2)ccc1C(F)(F)F [compound 14, (R)-5-(4-(6-(1,2-dihydroxyethyl)pyridin-2-yl)phenoxy)-2-(trifluoromethyl) benzonitrile]	1.3 ± 0.3 µM
N#Cc1ccc(Oc2ccc(-c3cccc([C@H](O)CO)n3)cc2)c(C(F)(F)F)c1 [compound 22, (S)-4-(4-(6-(1,2-dihydroxyethyl)pyridin-2-yl)phenoxy)-3-(trifluoromethyl) benzonitrile]	3.33 ± 0.2 µM
N#Cc1ccc(Oc2ccc(-c3cc([C@H](O)CO)cc(C(N)=O)n3)cc2)cc1C(F)(F)F [compound 31, (S)-6-(4-(4-cyano-3-(trifluoromethyl)phenoxy)phenyl)-4-(1,2-dihydroxyethyl) picolinamide]	0.61 ± 0.1 µM
N#Cc1ccc(Oc2ccc(-c3cc([C@H](O)CO)cc(C(N)=O)n3)cc2)c(C(F)(F)F)c1 [compound 35, (S)-6-(4-(4-cyano-2-(trifluoromethyl)phenoxy)phenyl)-4-(1,2-dihydroxyethyl) picolinamide]	0.4 ± 0.07 µM
N#Cc1ccc(Oc2ccc(-c3cc([C@@H](O)CO)cc(C(N)=O)n3)cc2)c(C(F)(F)F)c1 [compound 36, (R)-6-(4-(4-cyano-2-(trifluoromethyl)phenoxy)phenyl)-4-(1,2-dihydroxyethyl) picolinamide]	0.22 ± 0.04 µM
N#CCCN(c1ccccc1)c1cc(C(N)=O)nc(-c2ccc(Oc3ccc(F)cc3)cc2)c1 [compound 44, 4-((2-cyanoethyl)(phenyl)amino)-6-(4-(4-fluorophenoxy)phenyl) picolinamide]	3.29 ± 1.17 µM
NC(=O)c1cc(NCc2ccncc2)cc(-c2ccc(Oc3ccc(F)cc3)cc2)n1 [compound 46, 6-(4-(4-fluorophenoxy)phenyl)-4-((pyridin-4-ylmethyl)amino) picolinamide]	0.48 ± 0.07 µM

Same assay, conditions: recombinant human Nav1.7 in HEK293 cells; CoroNa Green sodium dye; veratridine + scorpion venom; read-out: Nav1.7 IC50 (μM) ± SEM

Structure (SMILES)	IC50
CC(C)NC(=O)N1CCN(c2cc(-c3ccc(Oc4ccc(F)cc4)cc3)nc([C@@H](O)CO)c2)CC1 [compound 7, (R)-4-(2-(1,2-dihydroxyethyl)-6-(4-(4-fluorophenoxy)phenyl)pyridin-4-yl)-N-isopropyl piperazine-1-carboxamide]	0.32 ± 0.02 µM
N#Cc1cc(C(F)(F)F)ccc1Oc1ccc(-c2cccc(C(O)CO)n2)cc1 (centres unmarked) [compound 10, 2-(4-(6-(1,2-dihydroxyethyl)pyridin-2-yl)phenoxy)-5-(trifluoromethyl) benzonitrile]	0.52 ± 0.11 µM
OCC(O)c1cccc(-c2ccc(Oc3ncc(C(F)(F)F)cc3Cl)cc2)n1 (centres unmarked) [compound 15, 1-(6-(4-((3-chloro-5-(trifluoromethyl)pyridin-2-yl)oxy)phenyl)pyridin-2-yl) ethane-1,2-diol]	1.42 ± 0.24 µM
OCC(O)c1cccc(-c2ccc(Oc3ccc(C(F)(F)F)cn3)cc2)n1 (centres unmarked) [compound 16, 1-(6-(4-((5-(trifluoromethyl)pyridin-2-yl)oxy)phenyl)pyridin-2-yl) ethane-1,2-diol]	1.71 ± 0.24 µM
Cc1ccc(Oc2ccc(-c3cccc(C(O)CO)n3)cc2)cn1 (centres unmarked) [compound 17, 1-(6-(4-((6-methylpyridin-3-yl)oxy)phenyl)pyridin-2-yl)ethane-1,2-diol]	2.77 ± 0.41 µM
CC(=O)c1ccc(Oc2ccc(-c3cccc(C(O)CO)n3)cc2)c(C(F)(F)F)c1 (centres unmarked) [compound 20, 1-(4-(4-(6-(1,2-dihydroxyethyl)pyridin-2-yl)phenoxy)-3-(trifluoromethyl)phenyl)ethanone]	2.95 ± 0.76 µM
OC[C@H](O)c1cc(N2CCNCC2)cc(-c2ccc(Oc3ccc(F)cc3)cc2)n1 [compound 21, (R)-1-(6-(4-(4-fluorophenoxy)phenyl)-4-(piperazin-1-yl)pyridin-2-yl)ethane-1,2-diol]	2.97 ± 0.91 µM
OC[C@H](O)c1cccc(-c2ccc(Oc3ccc(C(F)(F)F)cn3)cc2)n1 [compound 23, (R)-1-(6-(4-((5-(trifluoromethyl)pyridin-2-yl)oxy)phenyl)pyridin-2-yl)ethane-1,2-diol]	4.89 ± 2.48 µM
OC[C@@H](O)c1cccc(-c2ccc(Oc3ccc(C(F)(F)F)cn3)cc2)n1 [compound 24, (S)-1-(6-(4-((5-(trifluoromethyl)pyridin-2-yl)oxy)phenyl)pyridin-2-yl)ethane-1,2-diol]	6.49 ± 2.94 µM
Cc1ccc(Oc2ccc(-c3cccc(C(O)CO)n3)cc2)cn1 (centres unmarked) [compound 27, 1-(6-(4-((6-methylpyridin-3-yl)oxy)phenyl)pyridin-2-yl)ethane-1,2-diol]	> 20 µM
OCC(O)c1cccc(-c2ccc(Oc3ncccc3C(F)(F)F)cc2)n1 (centres unmarked) [compound 29, 1-(6-(4-((3-(trifluoromethyl)pyridin-2-yl)oxy)phenyl)pyridin-2-yl) ethane-1,2-diol]	2.65 ± 0.37 µM
NC(=O)c1ccc(Oc2ccc(-c3cc([C@H](O)CO)cc(C(N)=O)n3)cc2)c(C(F)(F)F)c1 [compound 32, (S)-6-(4-(4-carbamoyl-2-(trifluoromethyl)phenoxy)phenyl)-4-(1,2-dihydroxyethyl) picolinamide]	> 20 µM
N#Cc1cc(Oc2ccc(-c3cc([C@H](O)CO)cc(C(N)=O)n3)cc2)ccc1C(F)(F)F [compound 33, (S)-6-(4-(3-cyano-4-(trifluoromethyl)phenoxy)phenyl)-4-(1,2-dihydroxyethyl) picolinamide]	0.5 ± 0.07 µM
N#Cc1cc(Oc2ccc(-c3cc([C@@H](O)CO)cc(C(N)=O)n3)cc2)ccc1C(F)(F)F [compound 34, (R)-6-(4-(3-cyano-4-(trifluoromethyl)phenoxy)phenyl)-4-(1,2-dihydroxyethyl) picolinamide]	0.38 ± 0.08 µM
N#Cc1ccc(Oc2ccc(-c3cc([C@H](O)CO)cc(C(N)=O)n3)cc2)cc1 [compound 37, (S)-6-(4-(4-cyanophenoxy)phenyl)-4-(1,2-dihydroxyethyl) picolinamide]	0.44 ± 0.1 µM
N#Cc1ccc(Oc2ccc(-c3cc([C@@H](O)CO)cc(C(N)=O)n3)cc2)cc1 [compound 38, (R)-6-(4-(4-cyanophenoxy)phenyl)-4-(1,2-dihydroxyethyl) picolinamide]	0.35 ± 0.07 µM
NC(=O)c1cc([C@H](O)CO)cc(-c2ccc(Oc3cc(Cl)ccc3F)cc2)n1 [compound 39, (S)-6-(4-(5-chloro-2-fluorophenoxy)phenyl)-4-(1,2-dihydroxyethyl) picolinamide]	0.13 ± 0.03 µM
NC(=O)c1cc([C@H](O)CO)cc(-c2ccc(Oc3ccc(F)cc3)cc2)n1 [compound 41, (S)-4-(1,2-dihydroxyethyl)-6-(4-(4-fluorophenoxy)phenyl)picolinamide]	0.24 ± 0.04 µM
O=C(NCCN1CCCCC1)c1cc([C@H](O)CO)cc(-c2ccc(Oc3ccc(F)cc3)cc2)n1 [compound 42, (S)-4-(1,2-dihydroxyethyl)-6-(4-(4-fluorophenoxy)phenyl)-N-(2-(piperidin-1-yl)ethyl) picolinamide]	1.25 ± 0.15 µM
CN(c1ccccc1)c1cc(C(N)=O)nc(-c2ccc(Oc3ccc(F)cc3)cc2)c1 [compound 43, 6-(4-(4-fluorophenoxy)phenyl)-4-(methyl (phenyl)amino) picolinamide]	0.93 ± 0.17 µM
NC(=O)c1cc(NCc2cccnc2)cc(-c2ccc(Oc3ccc(F)cc3)cc2)n1 [compound 45, 6-(4-(4-fluorophenoxy)phenyl)-4-((pyridin-3-ylmethyl)amino) picolinamide]	0.15 ± 0.01 µM
NC(=O)c1cc(NCc2ccccn2)cc(-c2ccc(Oc3ccc(F)cc3)cc2)n1 [compound 47, 6-(4-(4-fluorophenoxy)phenyl)-4-((pyridin-2-ylmethyl)amino) picolinamide]	0.22 ± 0.06 µM
NC(=O)c1cc(NCCN2CCS(=O)(=O)CC2)cc(-c2ccc(Oc3ccc(F)cc3)cc2)n1 [compound 48, 4-((2-(1,1-dioxidothiomorpholino)ethyl)amino)-6-(4-(4-fluorophenoxy)phenyl) picolinamide]	0.09 ± 0.06 µM
NC(=O)c1cc(NCc2ncccn2)cc(-c2ccc(Oc3ccc(F)cc3)cc2)n1 [compound 49, 6-(4-(4-fluorophenoxy)phenyl)-4-((pyrimidin-2-ylmethyl)amino) picolinamide]	0.1 ± 0.03 µM
CS(=O)(=O)NCc1cc(C(N)=O)nc(-c2ccc(Oc3ccc(F)cc3)cc2)c1 [compound 50, 6-(4-(4-fluorophenoxy)phenyl)-4-(methylsulfonamido-methyl)picolinamide]	0.14 ± 0.03 µM
NC(=O)c1cc(CN2CCNCC2)cc(-c2ccc(Oc3ccc(F)cc3)cc2)n1 [compound 51, 6-(4-(4-fluorophenoxy)phenyl)-4-(piperazin-1-ylmethyl)picolinamide]	0.18 ± 0.3 µM
